Experiments:
[1] = tested on: Pseudomonas aeruginosa ATCC 10145 and Staphylococcus aureus ATCC 6538; assay: Biocidal efficacy and synergy of glutaraldehyde and Surf. B against aerobic (facultative) bacteria (2 h kill, serial dilution enumeration); assay type: cell-based; conditions: Glut part, alone (1:0) or in combination with Surf. B, 37° C., approximately 10^7 CFU/mL, 0.85% NaCl
Experimental: (§1) Surfactants and biocides were evaluated for synergy by determining the synergy index (S.I.) of the combination. Synergy index was calculated based the concentration required to achieve a certain level of bacterial kill when the two antimicrobial compounds (A and B) alone and in combinations. The tests organisms were anaerobic sulfate-reducing bacteria (Desulfovibrio longus ATCC #51456), facultative bacteria Pseudomonas aeruginosa ATCC #10145 and Staphylococcus aureus ATCC #6538, R^2O(CH2CH(CH3)O)3(CH2CH2O)7H Surf. A R^2O(CH2CH(CH3)O)3(CH2CH2O)5H Surf. B R^2O(CH2CH(CH3)O)3(CH2CH2O)13H Surf. C where R^2 is a mixture of C8-C14 linear alkyl groups.
(§2) SI is calculated as follows: Ca/CA+Cb/CB=Synergy Index (“SI”)
(§3) Wherein: • Ca=Concentration of biocide A required to achieve a certain level of bacterial kill when used in combination with B • CA=Concentration of biocide A required to achieve a certain level of bacterial kill when used alone • Cb=Concentration of biocide B required to achieve a certain level of bacterial kill when used in combination with A • CB=Concentration of biocide B required to achieve a certain level of bacterial kill when used alone When the sum of Ca/CA and Cb/CB is greater than one, antagonism is indicated.
Sterile 0.85% NaCl solution was inoculated with approximately 10^7 CFU/mL of Pseudomonas aeruginosa ATCC 10145 and Staphylococcus aureus ATCC 6538. […]

[2] = tested on: Desulfovibrio longus ATCC 51456; assay: Biocidal efficacy and synergy of glutaraldehyde and Surf A-C against anaerobic sulfate-reducing bacteria (2 h kill, serial dilution enumeration); assay type: cell-based; conditions: Glut part, 35° C.
Experimental: as §1
Inside an anaerobic chamber (Bactron anaerobic chamber), a deoxygenated sterile salt solution (3.1183 g of NaCl, 1.3082 mg of NaHCO3, 47.70 mg of KCl, 72.00 mg of CaCl2, 54.49 mg of MgSO4, 172.28 mg of Na2SO4, 43.92 mg of Na2CO3 in 1 L water) was inoculated with Desulfovibrio longus ATCC 51456 to a final bacterial concentration of 10^6 to 10^7 CFU/mL. Aliquots of this cell suspension were then treated with glutaraldehyde, and each of Surf A-C at selected active concentrations. After incubation at 35° C. for 2 hours, viable bacteria in the aliquots were enumerated using serial dilution method.
as §2, §3

With `O=CCCCC=O` [Glut, glutaraldehyde, (1,5-pentanedial) CAS No. 111-30-8] the “Concentration (active ppm) for more than 99.999% bacterial kill in 2 hours, Glut” value [1] was 29.6 active ppm, the “Concentration (active ppm) for complete bacterial kill in 2 hours, Glut” value ([2]; alone (1:0) or in combination with Surf C) was 29.6 active ppm and the “Concentration (active ppm) for 99.99% bacterial kill in 2 hours, Glut” value ([2]; alone (1:0) or in combination with Surf. A, 10^6 to 10^7 CFU/mL) was 13.2 active ppm. For the same compound, the “Concentration (active ppm) for more than 99.999% bacterial kill in 2 hours, Glut” value ([2]; alone (1:0) or in combination with Surf. B) was 29.6 active ppm.

— patent US9781927B2, “Microbicidal composition” (Dow Global Technologies LLC, priority 2016, dated 2017)
